Patent US5798365A, “Substituted quinoline derivatives, a process for their preparation, and their use” (Hoechst Aktiengesellschaft, priority 1994, dated 1998)
In brackets after ≈: the same amount, converted by molar mass. Read-outs that look alike come from different tables or passages of the source.

Experiments:
[1] = target: T1, HIV reverse transcriptase (Human immunodeficiency virus type 1 group M subtype B, UniProt P04585); test: Inhibition of HIV reverse transcriptase, scintillation proximity assay (SPA); format: biochemical; settings: RT-SPA, 60 min, 37° C., read-out: Reverse Transcriptase Asaay IC-50 (converted)
T1 construct: purchased HT-Biotechnology LTD, Cambridge, UK; host or cells: E. coli
Description: Investigation of the ability of the substances to inhibit the HIV reverse transcriptase
The activity of the reverse transcriptase (RT) was measured by means of a scintillation proximity assay (SPA).
The reagent kit for the RT-SPA was obtained from Amersham/Buchler (Braunschweig). The RT enzyme (originating from HIV and cloned in E. coli) was provided by HT-Biotechnology LTD, Cambridge, UK.
The test was carried out in accordance with the supplier's (Amersham) methods manual--with the following modifications:
bovine serum albumin was added to the assay buffer to a final concentration of 0.5 mg/ml.
The test was carried out in Eppendorf reaction tubes using a mixture volume of […].
The supplier's RT concentrate (5000 U/ml) was diluted in 20 mM tris-HCl buffer; pH 7.2; 30% glycerol to an activity of 15 U/ml.
The assay mixtures were incubated for 60 min (at 37° C.).
After the reaction had been stopped and "developed" using the bead suspension, […] of assay mixture was transferred into 4.5 ml of 10 mM tris-HCl buffer; pH 7.4; 0.15M NaCl
and the tritium activity was measured in a β counter.
In order to carry out a preliminary test for inhibitor activity, the substances were dissolved in DMSO (stock solution concentration=1 mg/ml) and tested at 10^-1, 10^-2, 10^-3, etc. dilutions in DMSO.
In order to determine the IC50 values, the stock solutions of inhibitor were further diluted in 50 mM tris-HCl buffer, pH 8, and tested at suitable concentrations.
The concentration giving rise to 50% inhibition of the enzyme was ascertained from the graphic depiction of RT activity versus log Cinh.

[2] = system: HIV; test: Testing preparations against HIV in cell culture (infected human donor lymphocytes); format: cell-based; settings: for MIC: Human immunodeficiency virus 1, 72 h, lowest concentration without giant cells; for IC50: Human immunodeficiency virus 1, Lymphocyte, 72 h
Description: Testing preparations against HIV in cell culture
Description of the method
The complete medium additionally contains 20% foetal calf serum and 40 IU/ml recombinant interleukin 2.
Lymphocytes which have been isolated from fresh donor blood by means of Ficoll® gradient centrifugation are cultured, at 37° C. for 36 h and under 5% CO2, in complete medium in the added presence of […] phytohemagglutinin (Wellcome). After the addition of 10% DMSO, the cells are frozen at a cell density of 5×10^6 and stored in liquid nitrogen. For the experiment, the cells are thawed, washed in RPMI medium and cultured for 3-4 days in complete medium.
The preparations for testing were dissolved in DMSO at a concentration of 16.7 mg/ml and diluted to 1 mg/ml in complete medium. 0.4 ml of medium was initially introduced in 24-well multiwell plates. After 0.1 ml of the dissolved preparation had been added to the upper row of the plate, a geometrical dilution series was produced by transferring 0.1 ml on each occasion. Preparation-free controls always contained 0.4 ml of complete medium containing 0.5% DMSO.
Lymphocyte cultures having a cell count of 5×10^5 cells/ml were infected by adding a 1/50 volume of the supernatant from lymphocyte cultures infected with HIV. The titer of these culture supernatants was determined, by end point dilution, to be 1-5×10^6 infectious units/ml. After incubating at 37° C. for 30 min, the infected lymphocytes were centrifuged off and taken up once again in the same volume of medium. 0.6 ml of this cell suspension was added to each of the wells in the test plate. The assay mixtures were incubated at 37° C. for 3 days.
The infected cell cultures were examined under the microscope for the presence of giant cells, which indicate that the virus is multiplying actively in the culture. The lowest preparation concentration at which no giant cells appeared was defined as the inhibitory concentration against HIV (MIC value). As a control, the presence of HIV antigen in the supernatants from the culture plates was determined using a test for HIV antigen in accordance with the manufacturer's (Organon) instructions.

[3] = HIV-infected lymphocytes, 3 days, 37° C.
[4] = HIV-infected lymphocytes, 3 days, 37° C., read-out: IC-50

SMILES	IC50 ([1]; molar value in parentheses)	IC50 [1]	MIC [2, 3]	IC50 [2, 4]	further results
CCCC=C1c2ccccc2NC(=O)C12CCC2 [Compound 5]	479 nM	479 nM	0.2 µg/mL (≈ 0.829 µM)	0.04 µg/mL (≈ 0.166 µM)	–
COc1ccc2c(c1)C(=CCC(C)C)C(C)(C)C(=S)N2 [Compound 69]	18 nM	17.3 nM	< 0.02 µg/mL	–	IC50 [2]: ~0.0018 µg/mL (≈ 0.00622 µM)
CC1(C)C(=S)Nc2ccc(F)cc2C1=C1CCCC1 [Compound 143]	–	–	> 0.008 µg/mL	< 0.008 µg/mL	–
CCCC=C1c2cc(OCC)ccc2NC(=O)C1(C)C [Compound 54]	–	–	0.1 µg/mL (≈ 0.366 µM)	0.05 µg/mL (≈ 0.183 µM)	–
CCCCCC=C1c2cc(OC)ccc2NC(=S)C1(C)C [Compound 64]	109 nM	109 nM	–	–	–
CCC/C=C1\c2cc(Cl)ccc2NC(=O)C1(C)C [Compound 73, E-4-n-butylene-6-chloro-3,4-dihydro-3,3-dimethylquinolin-2(1H)-one]	30 nM	30.3 nM	< 0.04 µg/mL	0.02 µg/mL (≈ 0.0758 µM)	–
COc1ccc2c(c1)C(=C1CCCC1)C(C)(C)C(=O)N2 [Compound 138]	–	225 nM	> 0.2 µg/mL	0.03 µg/mL (≈ 0.111 µM)	–
CCCC=C1c2cc(OCC)ccc2NC(=S)C1(C)C [Compound 55]	31 nM	31.1 nM	< 0.08 µg/mL	~0.006 µg/mL (≈ 0.0207 µM)	–
CCCC=C1c2cc(OC)ccc2NC(=O)C1(C)C [Compound 41, E/Z-4-n-butylene-3,4-dihydro-3,3-dimethyl-6-methoxyquinolin-2(1H)-one]	–	–	0.2 µg/mL (≈ 0.771 µM)	~0.2 µg/mL (≈ 0.771 µM)	–
CC(C)C=C1c2ccccc2NC(=S)C1(C)C [Compound 24]	270 nM	270 nM	–	–	–
CCCC=C1c2cc(Cl)ccc2NC(=NO)C1(C)C [Compound 60]	12 nM	10.8 nM	0.0016 µg/mL (≈ 0.00574 µM)	~0.0003 µg/mL (≈ 0.00108 µM)	–
CCC=C1c2ccccc2NC(=O)C1(CC)CC [Compound 50]	–	–	< 0.1 µg/mL	~0.01 µg/mL (≈ 0.0411 µM)	–
CC(C)=C1c2cc(Cl)ccc2NC(=S)C1(C)C [Compound 10]	116 nM	117 nM	–	–	IC50 ([2]; HIV-infected lymphocytes, 3 days, unit as printed for compound 10, read-out: IC-50): 0.025 µg/mL (≈ 0.0941 µM)
CCOc1ccc2c(c1)C(=CCC(C)C)C(C)(C)C(=O)N2 [Compound 58]	–	–	< 0.1 µg/mL	–	IC50 ([2]; HIV-infected lymphocytes, 3 days, unit as printed for compound 58, read-out: IC-50): ~0.02 µg/mL (≈ 0.0696 µM)
CCCC=C1c2ccccc2NC(=O)C12CCCC2 [Compound 6, E/Z-4-n-butylene-3,3-cyclopentylidene-3,4-dihydroquinolin-2(1H)-one]	113 nM	113 nM	–	–	–
C=C1c2cc(Cl)ccc2NC(=S)C1(C)C [Compound 1]	–	–	1 µg/mL (≈ 4.21 µM)	≥ 0.04 µg/mL	–
COc1ccc2c(c1)C(=CC(C)C)C(C)(C)C(=S)N2 [Compound 61]	62 nM	61.7 nM	0.02 µg/mL (≈ 0.0726 µM)	~0.004 µg/mL (≈ 0.0145 µM)	–
CC/C=C1\c2cc(Cl)ccc2NC(=S)C1(C)C [Compound 71]	5 nM	3.76 nM	0.0016 µg/mL (≈ 0.00602 µM)	–	–
COc1ccc2c(c1)C(=CC(C)C)C(C)(C)C(=O)N2 [Compound 43]	–	–	0.2 µg/mL (≈ 0.771 µM)	0.05 µg/mL (≈ 0.193 µM)	–

SMILES	IC50 ([1]; molar value in parentheses)	IC50 [1]	MIC [2, 3]	IC50 [2, 4]	further results
CCOc1ccc2c(c1)C(=CC(C)C)C(C)(C)C(=S)N2 [Compound 47]	–	–	< 0.08 µg/mL	~0.015 µg/mL (≈ 0.0518 µM)	–
CCCC=C1c2cc(OC(F)(F)F)ccc2NC(=S)C1(C)C [Compound 36]	–	–	< 0.2 µg/mL	~0.01 µg/mL (≈ 0.0304 µM)	–
C=CC=C1c2cc(Cl)ccc2NC(=S)C1(C)C [Compound 14]	18 nM	15.2 nM	< 0.008 µg/mL	0.005 µg/mL (≈ 0.019 µM)	–
CCC/C=C1\c2cc(Cl)ccc2NC(=S)C1(C)C [Compound 75, E-4-n-butylene-6-chloro-3,4-dihydro-3,3-dimethylquinolin-2(1H)-thione]	–	< 3.57 nM	0.004 µg/mL (≈ 0.0143 µM)	~0.0018 µg/mL (≈ 0.00643 µM)	–
CCC=C1c2cc(OC)ccc2NC(=O)C1(C)C [Compound 44]	–	–	0.2 µg/mL (≈ 0.815 µM)	0.06 µg/mL (≈ 0.245 µM)	–
CCCC=C1c2ccccc2NC(=S)C1(C)C [Compound 28]	24 nM	23.6 nM	0.008 µg/mL (≈ 0.0326 µM)	~0.01 µg/mL (≈ 0.0408 µM)	–
CCCC=C1c2ccccc2NC(=S)C12CCCC2 [Compound 8, E/Z-4-n-butylene-3,3-cyclopentylidene-3,4-dihydroquinolin-2(1H)-thione]	16 nM	14.7 nM	0.008 µg/mL (≈ 0.0295 µM)	–	IC50 [2]: 0.0016 µg/mL (≈ 0.00589 µM)
CC(C)CC=C1c2ccccc2NC(=O)C12CCCC2 [Compound 67]	91 nM	89.1 nM	< 0.1 µg/mL	~0.02 µg/mL (≈ 0.0742 µM)	–
CC/C=C1/c2cc(Cl)ccc2NC(=S)C1(C)C [Compound 72]	–	–	< 0.008 µg/mL	–	–
CCC/C=C1/c2cc(Cl)ccc2NC(=O)C1(C)C [Compound 74, Z-4-n-butylene-6-chloro-3,4-dihydro-3,3-dimethylquinolin-2(1H)-one]	–	–	0.04 µg/mL (≈ 0.152 µM)	–	IC50 ([2]; HIV-infected lymphocytes, 3 days, unit as printed for compound 74, read-out: IC-50): 0.02 µg/mL (≈ 0.0758 µM)
CC(C)C=C1c2cc(Cl)ccc2NC(=O)C1(C)C [Compound 17]	–	–	< 0.02 µg/mL	~0.04 µg/mL (≈ 0.152 µM)	–
CCCCCC=C1c2ccccc2NC(=S)C12CCC2 [Compound 32]	–	–	0.2 µg/mL (≈ 0.701 µM)	~0.08 µg/mL (≈ 0.28 µM)	–
C=CC=C1c2ccccc2NC(=S)C1(C)C [Compound 30]	–	–	< 0.2 µg/mL	~0.02 µg/mL (≈ 0.0872 µM)	–
CCC=C1c2cc(Cl)ccc2NC(=O)C12CCCC2 [Compound 77]	–	–	0.2 µg/mL (≈ 0.725 µM)	~0.03 µg/mL (≈ 0.109 µM)	–
C=CC=C1c2cc(Cl)ccc2NC(=O)C1(C)C [Compound 13]	–	–	> 0.2 µg/mL	0.04 µg/mL (≈ 0.161 µM)	–
C=CC=C1c2cc(OC)ccc2NC(=S)C1(C)C [Compound 68]	–	~38.6 nM	–	–	–
CCCCCC=C1c2cc(Cl)ccc2NC(=S)C1(C)C [Compound 16]	–	–	< 0.2 µg/mL	~0.03 µg/mL (≈ 0.0974 µM)	–
CC=C1c2ccccc2NC(=S)C12CCCC2 [Compound 38]	–	–	< 0.2 µg/mL	~0.08 µg/mL (≈ 0.329 µM)	–
CC(C)C=C1c2ccccc2NC(=S)C12CCC2 [Compound 34]	–	–	< 0.04 µg/mL	~0.01 µg/mL (≈ 0.0388 µM)	–
